# Measured values from patent US20250064845A1, “COMPOSITION COMPRISING FLAVIN ADENINE DINUCLEOTIDE (FAD), L-GSH, ATP AND MYRISTIC ACID, ALONE OR WITH A DRUG” (BIO EVEN, priority 2023, published 2025).
# Assays:
# H22 transplanted tumor = conditions: H22 tumor-bearing mice
# Description: Body weight was weighed every three days.
# • Species: Rodent; Strain: BALB/c mice; Grade: SPF; Gender: Female; Age: 5-6 weeks.
# • The H22 mouse hepatoma cell line was purchased from Wuhan Procell Life Technology Co., Ltd. (Wuhan, China, Contract No.: XD-000-2022-03-30-0029) and stored at −80° C. after arrival.
# Ascitic tumor fluid was then diluted with matrigel to adjust the cell concentration to 2*10^7 cells/mL.
# [1] = test system: Pan02 transplanted pancreatic tumor; conditions: Pan02 tumor-bearing mice
# Description: Each mouse was subcutaneously treated with Pan02 cell suspension (5*10^5 cells) in the right axilla of the forelimb. […] Body weight was weighed every three days. The volume of the solid tumor was measured using a digital caliper every three days. The survival of animals was monitored and recorded daily.
# • The Pan02 mouse pancreatic cancer line was purchased from Shanghai Enzyme Research Biotechnology Co., Ltd. (Shanghai, China, Cell line No.: CC-Y2144) and stored at −80° C. after arrival. The Pan02 cells were cultured in DMEM supplemented with 10% FBS (v/v), 100 U/ml penicillin G (Sigma-Aldrich, USA), and 100 μg/mL streptomycin (Sigma-Aldrich, USA). The cultures were maintained in a humidified incubator at 37° C. and 5% CO2.
# • Different test drugs were administered intravenously (i.v.) and intraperitoneally (i.p.) once every other day at 10:00 am. A or B drugs were injected into the tail vein first, and 5-FU was injected intraperitoneally 24 h later.
# • Each mouse was subcutaneously treated with 0.1 mL cell suspension (5*10^5 cells) in the right axilla of the forelimb. When the tumor size increases to 100 mm^3-150 mm^3, mice were randomly divided into treatment groups: the model group (n=10), the A group (n=10), the B group (n=10), the 5-FU group (1.5 mg/kg, n=10), the A+5-FU group (1.5 mg/kg, n=10), the B+5-FU group (1.5 mg/kg, n=10) (Table 1).
# • Body weight was weighed every three days. The length and width of the solid tumor was measured with a digital caliper every three days. Tumor volume was calculated by the modified ellipsoidal formula: V =n/6 x (length x width2). The survival time of animals was monitored and recorded daily. […] The percent survival (%) was calculated using the following equations: percent survival (%)=[(10-numbers of mice died in each group)/10]*100%.
smiles,measurement,setting,value
"O=c1[nH]cc(F)c(=O)[nH]1 [Composition 5-FU, 5-fluorouracil]",mortality rate of mice on the 22nd day,H22 transplanted tumor; 5-FU alone 2.5 mg/kg i.p. once every two days,30%
same,median survival time,"H22 transplanted tumor; 5-FU alone 2.5 mg/kg, longer survival defaulted as 22 days",22 days
same,tumor volume / antitumor effect,"[1]; 82 days, 5-FU 1.5 mg/kg",significantly decreased tumor volume
same,mortality rate of mice on the 82nd day,"[1]; A or B 100 μL i.v., 5-FU 1.5 mg/kg i.p., once every other day, n=10",90%
same,median survival time,"[1]; A or B 100 μL i.v., 5-FU 1.5 mg/kg i.p., once every other day, test 82 days, longer survival defaulted as 82 days",53.5 days
